# Data published in US10278965B2, “Method of detecting cancer stem cell, method of screening cancer stem cell, and method of inhibiting cancer stem cell” (CANON KABUSHIKI KAISHA, priority 2012, dated 2019).
# Experiments:
# [1] = tested on: Prostatic cancer cells, PC-3; test: Cancer cell inhibitory (growth suppressive) action against prostatic cancer cells, CellTiter-Glo viable cell count; format: cell-based; conditions: PC-3, 10 μg/mL, 24 hours
# Description: Prostatic cancer cells, PC-3, were pre-cultured in RPMI1640 medium containing 10% FBS at 37° C. in a 5% CO2 ambient. Thereafter, 4,000 cells were seeded per well of a 96-well plate and further cultured for 24 hours. Subsequently, Compound (1) was added to the medium so as to obtain a final concentration of 10 μg/mL and cultured at 37° C. for 24 hours in a 5% CO2 ambient. The cultured cells were analyzed for viable cell count according to Cell Titer-Glo Luminescent Cell Viability Assay (manufactured by Promega KK.).
# Viable cell count was analyzed in the same manner as in Experimental Example 24 except that Compound (1) of Experimental Example 24 was changed to each compound shown in Table 2.
# Viable cell count was analyzed in the same manner as in Experimental Example 24 except that Compound (1) of Experimental Example 24 was changed to each of Comparative compounds 1 to 4, to obtain growth rates.
# Note that the growth rate used in Examples refers to the rate (expressed by percentage) of viable cell count after culture relative to the number of cells at the initiation of cell culture. Evaluation criteria are the same as in the above experiments.
# [2] = tested on: Human chronic myelocytic leukemia cells, K562, ALDH (+) fraction (cancer stem cells); test: Cancer stem-cell selective inhibitory action against chronic myelocytic leukemia cells, ALDH (+) fraction; format: cell-based; conditions: 24 hours
# Description: Human chronic myelocytic leukemia cells, K562, were pre-cultured in RPMI1640 medium containing 10% FBS at 37° C. in a 5% CO2 ambient. Then, a fraction containing 80% or more of cancer stem cells was extracted by use of a cancer stem cell marker, ALDEFLUOR reagent (manufactured by VERITAS Corporation) and FACSAria flow cytometry (manufactured by Nippon Becton, Dickinson and Company). […] The cultured cells were analyzed for viable cell count according to CellTiter-Glo Luminescent Cell Viability Assay (manufactured by Promega KK.). […] Note that hereinafter, an ALDEFLUOR reagent positive fraction (deemed as cancer stem cells) is represented by ALDH (+), whereas an ALDEFLUOR reagent negative fraction (not deemed as cancer stem cells) is represented by ALDH (−), in some cases.
# Further, the growth suppressive effect of cancer stem cells was evaluated based on the following criteria. Note that the growth rate in Examples is a value obtained by dividing viable cell count after culture by the number of cells at the initiation time of culture.
# [3] = tested on: Human pancreas cancer cells, KLM-1; test: Cancer cell inhibitory (growth suppressive) action against pancreatic cancer cells, CellTiter-Glo viable cell count; conditions: KLM-1, 10 μg/mL, 24 hours
# Description: Human pancreas cancer cells, KLM-1, were pre-cultured in RPMI1640 medium containing 10% FBS at 37° C. in a 5% CO2 ambient. Thereafter, 4,000 cells were seeded per well of a 96-well plate and further cultured for 24 hours. […] The cultured cells were analyzed for viable cell count according to CellTiter-Glo Luminescent Cell Viability Assay (manufactured by Promega KK.).
# Evaluation of cancer cell inhibition against the pancreatic cancer cells (KLM-1) (growth suppression) was made based on the following criteria. Note that the growth rate used in Examples refers to the rate (expressed by percentage) of viable cell count after culture relative to the number of cells at the initiation of cell culture.
# [4] = Measurement of fluorescent property of compound; format: physicochemical; conditions: 5 μM DMSO solution
# Description: The excitation wavelength and fluorescence wavelength of the compound were measured by a FL4500 spectrofluorometric measuring machine manufactured by Hitachi High-Technologies Corporation.
Compound,Excitation wavelength λex [4],Fluorescence wavelength λem [4],Cancer cell growth rate (%) [1],Evaluation (cancer cell growth rate) [1],"ALDH(+) Superiority evaluation ([2]; K562, 1 μg/ml)","ALDH(+)/ALDH(−) ([2]; K562, 1 μg/ml)",Cancer cell growth rate (%) [3],Evaluation (cancer cell growth rate) [3],"ALDH(+) Superiority evaluation ([2]; K562, 10 μg/ml)","ALDH(+)/ALDH(−) ([2]; K562, 10 μg/ml)"
"O=C(O)CN1/C(=C\C2=C(Cl)C(=C/c3sc4ccccc4[n+]3CC(=O)O)/CCC2)Sc2ccccc21 [Comparative compound 3, reference compound]",–,–,101%,C (Cancer cell growth rate is 50% or more),C (The value of the growth rate of ALDH (+)/the growth rate of ALDH (−) is 0.95 or more),0.79,93.0%,C (Cancer cell growth rate is 50% or more),–,–
CCC(=C\c1sc2c3ccccc3ccc2[n+]1CC)/C=C1/Sc2c(ccc3ccccc23)N1CC.[I-] [Compound 7],344 nm,381 nm,15.3%,A (Cancer cell growth rate is less than 20%),–,–,13.0%,A (Cancer cell growth rate is less than 20%),–,–
CCC(=C\c1sc2ccc3ccccc3c2[n+]1CC)/C=C1/Sc2ccc3ccccc3c2N1CC [Compound 10],586 nm,615 nm,–,–,–,–,13.5%,A (Cancer cell growth rate is less than 20%),–,–
CN1/C(=C\C=C\C2=[N+](C)c3ccc4ccccc4c3C2(C)C)C(C)(C)c2c1ccc1ccccc21 [Compound 20],–,–,13.1%,A (Cancer cell growth rate is less than 20%),–,–,1.2%,A (Cancer cell growth rate is less than 20%),–,–
CCN1/C(=C/C=C/C=C/C=C/C2=[N+](CC)c3ccccc3C23CCCCC3)C2(CCCCC2)c2ccccc21 [Compound 31],–,–,–,–,–,–,30.5%,B (Cancer cell growth rate is 20% or more and less than 50%),–,–
CCN1/C(=C/C=C/C=C/C=C/C2=[N+](CC)c3ccccc3C2(C)C)C(C)(C)c2ccccc21 [Compound 32],–,–,–,–,–,–,–,–,A (The value of the growth rate of ALDH (+)/the growth rate of ALDH (−) is less than 0.8),0.32
CCOC(=O)C1(C(=O)OCC)CC(/C=C/C2=[N+](CC)c3ccccc3C2(C)C)=CC(=C/C=C2/N(CC)c3ccccc3C2(C)C)/C1 [Compound 37],650 nm,770 nm,–,–,–,–,4.8%,A (Cancer cell growth rate is less than 20%),–,–
CCCC[N+]1=C(/C=C/C2=C(Cl)C(=C/C=C3/N(C)c4ccccc4C3(C)C)/CCC2)C(C)(C)c2c1ccc1ccccc21 [Compound 51],–,–,–,–,–,–,–,–,A (The value of the growth rate of ALDH (+)/the growth rate of ALDH (−) is less than 0.8),0.27
CCCCN1/C(=C/C=C2\CCCC(/C=C/C3=[N+](CCCC)c4ccccc4C3(C)C)=C2c2ccccc2)C(C)(C)c2ccccc21 [Compound 54],774 nm,800 nm,–,–,–,–,–,–,A (The value of the growth rate of ALDH (+)/the growth rate of ALDH (−) is less than 0.8),0.50
CC(C)CCN1/C(=C/C=C/C=C/C2=[N+](CCC(C)C)c3ccc4ccccc4c3C2(C)C)C(C)(C)c2c1ccc1ccccc21 [Compound 55],688 nm,715 nm,–,–,–,–,–,–,A (The value of the growth rate of ALDH (+)/the growth rate of ALDH (−) is less than 0.8),0.33
CCC(/C=C1\Oc2ccccc2N1CC)=C\c1oc2ccccc2[n+]1CC [Compound 56],–,–,–,–,–,–,–,–,A (The value of the growth rate of ALDH (+)/the growth rate of ALDH (−) is less than 0.8),0.65
CCC(=C\c1oc2ccc(-c3ccccc3)cc2[n+]1CC)/C=C1/Oc2ccc(-c3ccccc3)cc2N1CC [Compound 57],–,–,–,–,–,–,–,–,B (The value of the growth rate of ALDH (+)/the growth rate of ALDH (−) is 0.8 or more and less than 0.95),0.81

# The next lines start with results.
Excitation wavelength λex [4],Fluorescence wavelength λem [4],Compound,Cancer cell growth rate (%) [1],Evaluation (cancer cell growth rate) [1],"ALDH(+) Superiority evaluation ([2]; K562, 1 μg/ml)","ALDH(+)/ALDH(−) ([2]; K562, 1 μg/ml)",Cancer cell growth rate (%) [3],Evaluation (cancer cell growth rate) [3],"ALDH(+) Superiority evaluation ([2]; K562, 10 μg/ml)","ALDH(+)/ALDH(−) ([2]; K562, 10 μg/ml)"
563 nm,569 nm,CCC(/C=C1\Sc2ccccc2N1CC)=C\c1sc2ccccc2[n+]1CC.[I-] [Compound 4],19.5%,A (Cancer cell growth rate is less than 20%),–,–,3.1%,A (Cancer cell growth rate is less than 20%),–,–
354 nm,469 nm,CCN1/C(=C\C(C)=C\c2sc3c4ccccc4ccc3[n+]2CC)Sc2c1ccc1ccccc21 [Compound 11],4.3%,A (Cancer cell growth rate is less than 20%),–,–,5.0%,A (Cancer cell growth rate is less than 20%),–,–
492 nm,510 nm,CCCCCCCN1/C(=C\C=C\c2oc3ccccc3[n+]2CCCCCCC)Oc2ccccc21 [Compound 18],–,–,–,–,–,–,A (The value of the growth rate of ALDH (+)/the growth rate of ALDH (−) is less than 0.8),0.29
589 nm,614 nm,CCN1\C(=C/C=C/C=C/c2oc3ccccc3[n+]2CC)Oc2ccccc21 [Compound 28],–,–,B (The value of the growth rate of ALDH (+)/the growth rate of ALDH (−) is 0.8 or more and less than 0.95),0.83,–,–,A (The value of the growth rate of ALDH (+)/the growth rate of ALDH (−) is less than 0.8),0.69
819 nm,825 nm,CCN1/C(=C/C=C2\CCCC(/C=C/C3=[N+](CC)c4ccc(OC)cc4C3(C)C)=C2Cl)C(C)(C)c2cc(OC)ccc21 [Compound 40],–,–,–,–,14.1%,A (Cancer cell growth rate is less than 20%),–,–
797 nm,816 nm,CCCCN1/C(=C/C=C2\CCCC(/C=C/C3=[N+](CCCC)c4ccccc4C3(C)C)=C2Cl)C(C)(C)c2ccccc21 [Compound 43],12.3%,A (Cancer cell growth rate is less than 20%),–,–,35.6%,B (Cancer cell growth rate is 20% or more and less than 50%),–,–
665 nm,681 nm,CCN1C=C/C(=C/C=C/c2ccc3ccccc3[n+]2CC)c2ccccc21.[I-] [Compound 45],–,–,–,–,28.5%,B (Cancer cell growth rate is 20% or more and less than 50%),–,–
804 nm,520 nm,CN1/C(=C/C=C2\CCCC(/C=C/C3=[N+](C)c4ccccc4C3(C)C)=C2Sc2ccccc2)C(C)(C)c2ccccc21 [Compound 59],–,–,A (The value of the growth rate of ALDH (+)/the growth rate of ALDH (−) is less than 0.8),0.67,–,–,A (The value of the growth rate of ALDH (+)/the growth rate of ALDH (−) is less than 0.8),0.22
670 nm,696 nm,CN1/C(=C/C=C/C=C/C2=[N+](C)c3ccc4ccccc4c3C2(C)C)C(C)(C)c2cc(Cl)ccc21 [Compound 60],–,–,–,–,–,–,A (The value of the growth rate of ALDH (+)/the growth rate of ALDH (−) is less than 0.8),0.34
